Assay results published in patent US11655243B2, “Pyridine and pyrazine derivatives as preferential cannabinoid 2 agonists” (HOFFMANN-LA ROCHE INC., priority 2018, dated 2023).

Target: human CNR2 receptors (CB2 receptor) (Homo sapiens (Human), UniProt P34972)
Test: Radioligand binding assay, human CB2 (CNR2)
Conditions: not given
Method: Radioligand Binding Assay
The affinity of the compounds of the invention for cannabinoid CB1 receptors was determined using recommended amounts of membrane preparations (PerkinElmer) of human embryonic kidney (HEK) cells expressing the human CNR1 or CNR2 receptors in conjunction with 1.5 or 2.6 nM [3H]-CP-55,940 (Perkin Elmer) as radioligand, respectively. Binding was performed in binding buffer (50 mM Tris, 5 mM MgCl2, 2.5 mM EDTA, and 0.5% (wt/vol) fatty acid free BSA, pH 7.4 for CB1 receptor and 50 mM Tris, 5 mM MgCl2, 2.5 mM EGTA, and 0.1% (wt/vol) fatty acid free BSA, pH 7.4 for CB2 receptor) in a total volume of 0.2 ml for 1 h at 30° C. shaking. The reaction was terminated by rapid filtration through microfiltration plates coated with 0.5% polyethylenimine (UniFilter GFB filter plate; Packard). Bound radioactivity was analyzed for Ki using nonlinear regression analysis (Activity Base, ID Business Solution, Limited), with the Kd values for [3H]CP55,940 determined from saturation experiments. The compounds of formula (I) show an excellent affinity for the CB2 receptor.
The compounds according to formula (I) have an activity in the above assay (Ki) between 0.5 nM and 10 μM. Particular compounds of formula (I) have an activity in the above assay (Ki) between 0.5 nM and 3 μM. Other particular compounds of formula (I) have an activity in the above assay (Ki) between 0.5 nM and 100 nM.

human CNR2 receptors (CB2 receptor), sequence (P34972 whole entry): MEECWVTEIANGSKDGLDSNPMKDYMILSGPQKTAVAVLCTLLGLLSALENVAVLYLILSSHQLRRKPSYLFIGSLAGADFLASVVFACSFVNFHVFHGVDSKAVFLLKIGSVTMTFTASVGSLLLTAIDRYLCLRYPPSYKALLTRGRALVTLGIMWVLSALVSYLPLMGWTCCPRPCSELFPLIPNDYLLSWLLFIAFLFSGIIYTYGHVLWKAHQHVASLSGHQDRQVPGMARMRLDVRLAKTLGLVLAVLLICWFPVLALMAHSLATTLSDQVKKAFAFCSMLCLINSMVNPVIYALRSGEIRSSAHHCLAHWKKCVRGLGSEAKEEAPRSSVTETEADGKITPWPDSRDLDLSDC

SMILES | Ki [nM]
CCC(CC)(NC(=O)c1ccc(N2CC(O)C2)c(OC[C@H]2C[C@@H]2COCc2ccccc2)n1)C(=O)OCCCF (racemic) [Example 22, (Rac)-trans-3-Fluoropropyl 2-[[6-[[-2-(benzyloxymethyl)cyclopropyl]methoxy]-5-(3-hydroxyazetidin-1-yl)pyridine-2-carbonyl]amino]-2-ethyl-butanoate] | 755
CCC(CC)(NC(=O)c1ccc(N2CC(OS(=O)(=O)c3ccc(C)cc3)C2)c(OC[C@H]2C[C@@H]2CO)n1)C(=O)OCCCF (racemic) [Example 31, (Rac)-trans-3-fluoropropyl 2-ethyl-2-[[6-[[-2-(hydroxymethyl)cyclopropyl]methoxy]-5-[3-(p-tolylsulfonyloxy)azetidin-1-yl]pyridine-2-carbonyl]amino]butanoate] | 11.7
CCC(CC)(NC(=O)c1ccc(N2CC(OC)C2)c(OC[C@H]2C[C@@H]2CO)n1)C(=O)OCF (stereo in doubt) [Example 12, (+)-trans-Fluoromethyl 2-ethyl-2-{[6-{[-2-(hydroxymethyl)cyclopropyl]methoxy}-5-(3-methoxyazetidin-1-yl)pyridine-2-carbonyl]amino}butanoate] | 0.4

Same assay, conditions: membranes of HEK cells expressing human CNR2, 2.6 nM [3H]-CP-55,940 radioligand; read-out: Binding assay human CB2 Ki

SMILES | Ki [nM]
CCOC(=O)C(CC)(CC)NC(=O)c1ccc(N2CC(OC)C2)c(OC[C@H]2C[C@@H]2CF)n1 (mixture of isomers) [Example 3, Ethyl 2-ethyl-2-{[6-{[(1S,2S)-2-(fluoromethyl)cyclopropyl]methoxy}-5-(3-methoxyazetidin-1-yl)pyridine-2-carbonyl]amino}butanoate and ethyl 2-ethyl-2-{[6-{[(1R,R)-2-(fluoromethyl)cyclopropyl]methoxy}-5-(3-methoxyazetidin-1-yl)pyridine-2-carbonyl]amino}butanoate] | 0.5
CCOC(=O)C(CC)(CC)NC(=O)c1ccc(N2CC(OC)C2)c(OC[C@@H]2C[C@@H]2CF)n1 (mixture of isomers) [Example 4, Ethyl 2-ethyl-2-{[6-{[(1R,2S)-2-(fluoromethyl)cyclopropyl]methoxy}-5-(3-methoxyazetidin-1-yl)pyridine-2-carbonyl]amino}butanoate and ethyl 2-ethyl-2-{[6-{[(1S,2R)-2-(fluoromethyl)cyclopropyl]methoxy}-5-(3-methoxyazetidin-1-yl)pyridine-2-carbonyl]amino}butanoate] | 0.7
CCOC(=O)C(CC)(CC)NC(=O)c1ccc(N2CC(OC)C2)c(OC[C@@H]2C[C@@H]2COCF)n1 (mixture of isomers) [Example 5, Ethyl 2-ethyl-2-{[6-({(1R,2S)-2-[(fluoromethoxy)methyl]cyclopropyl}methoxy)-5-(3-methoxyazetidin-1-yl)pyridine-2-carbonyl]amino}butanoate and ethyl 2-ethyl-2-{[6-({(1S,2R)-2-[(fluoromethoxy)methyl]cyclopropyl}methoxy)-5-(3-methoxyazetidin-1-yl)pyridine-2-carbonyl]amino}butanoate] | 4.6
CCOC(=O)C(CC)(CC)NC(=O)c1ccc(N2CC(OC)C2)c(OC[C@@H]2C[C@@H]2COCCF)n1 (mixture of isomers) [Example 6, Ethyl 2-ethyl-2-{[6-({(1R,2S)-2-[(2-fluoroethoxy)methyl]cyclopropyl}methoxy)-5-(3-methoxyazetidin-1-yl)pyridine-2-carbonyl]amino}butanoate and ethyl 2-ethyl-2-{[6-({(1S,2R)-2-[(2-fluoroethoxy)methyl]cyclopropyl}methoxy)-5-(3-methoxyazetidin-1-yl)pyridine-2-carbonyl]amino}butanoate] | 13
CCC(CC)(NC(=O)c1ccc(N2CC(F)C2)c(OC[C@@H]2C[C@H]2CO)n1)C(=O)N[C@H](CO)CC(C)C (single isomer, unassigned) [Example 27, N-[1-Ethyl-1-[[(1S)-1-(hydroxymethyl)-3-methyl-butyl]carbamoyl]propyl]-5-(3-fluoroazetidin-1-yl)-6-[[(1R,2R)-2-(hydroxymethyl)cyclopropyl]methoxy]pyridine-2-carboxamide or N-[1-ethyl-1-[[(1S)-1-(hydroxymethyl)-3-methyl-butyl]carbamoyl]propyl]-5-(3-fluoroazetidin-1-yl)-6-[[(1S,2S)-2-(hydroxymethyl)cyclopropyl]methoxy]pyridine-2-carboxamide] | 4150
CCC(CC)(NC(=O)c1ccc(N2CC(F)C2)c(OC[C@H]2C[C@@H]2CO)n1)C(=O)N[C@H](CO)CC(C)C (single isomer, unassigned) [Example 28, N-[1-Ethyl-1-[[(1S)-1-(hydroxymethyl)-3-methyl-butyl]carbamoyl]propyl]-5-(3-fluoroazetidin-1-yl)-6-[[(1S,2S)-2-(hydroxymethyl)cyclopropyl]methoxy]pyridine-2-carboxamide or N-[1-ethyl-1-[[(1S)-1-(hydroxymethyl)-3-methyl-butyl]carbamoyl]propyl]-5-(3-fluoroazetidin-1-yl)-6-[[(1R,2R)-2-(hydroxymethyl)cyclopropyl]methoxy]pyridine-2-carboxamide] | 3940
CCC(CC)(NC(=O)c1ccc(N2CC(F)C2)c(OC[C@@H]2C[C@H]2CO)n1)C(=O)OCCCF (single isomer, unassigned) [Example 29, 3-Fluoropropyl 2-ethyl-2-{[5-(3-fluoroazetidin-1-yl)-6-{[(1R,2R)-2-(hydroxymethyl)cyclopropyl]methoxy}pyridin-2-yl]formamido}butanoate or 3-fluoropropyl 2-ethyl-2-{[5-(3-fluoroazetidin-1-yl)-6-{[(1S,2S)-2-(hydroxymethyl)cyclopropyl]methoxy}pyridin-2-yl]formamido}butanoate] | 10.9
CCC(CC)(NC(=O)c1ccc(N2CC(F)C2)c(OC[C@H]2C[C@@H]2CO)n1)C(=O)OCCCF (single isomer, unassigned) [Example 30, 3-Fluoropropyl 2-ethyl-2-{[5-(3-fluoroazetidin-1-yl)-6-{[(1S,2S)-2-(hydroxymethyl)cyclopropyl]methoxy}pyridin-2-yl]formamido}butanoate or 3-fluoropropyl 2-ethyl-2-{[5-(3-fluoroazetidin-1-yl)-6-{[(1R,2R)-2-(hydroxymethyl)cyclopropyl]methoxy}pyridin-2-yl]formamido}butanoate] | 1.7
CCOC(=O)C(CC)(CC)NC(=O)c1ccc(N2CC(OC)C2)c(OC[C@H]2C[C@@H]2COCF)n1 (stereo in doubt) [Example 9, (+)-trans-Ethyl 2-ethyl-2-{[6-({-2-[(fluoromethoxy)methyl]cyclopropyl}methoxy)-5-(3-methoxyazetidin-1-yl)pyridine-2-carbonyl]amino}butanoate] | 0.2
CCC(CC)(NC(=O)c1ccc(N2CC(OC)C2)c(OC[C@H]2C[C@@H]2CO)n1)C(=O)OCCF (stereo in doubt) [Example 13, (+)-trans-2-Fluoroethyl 2-ethyl-2-{[6-{[-2-(hydroxymethyl)cyclopropyl]methoxy}-5-(3-methoxyazetidin-1-yl)pyridine-2-carbonyl]amino}butanoate] | 0.3
CCOC(=O)C(CC)(CC)NC(=O)c1cc(F)c(N2CC(OC)C2)c(OCC2CC2)n1 [Example 7, Ethyl 2-{[6-(cyclopropylmethoxy)-4-fluoro-5-(3-methoxyazetidin-1-yl)pyridine-2-carbonyl]amino}-2-ethylbutanoate] | 2.5
